Our source for the IC50 and EC50 values is patent US6878722B2, “Substituted cycloalkyl P1′ hepatitis C virus inhibitors” (Bristol-Myers Squibb Company, priority 2002, dated 2005).

Each structure is given as a SMILES string.

For test [1], the target named is T1, HCV NS3/4A protease complex (BMS strain, genotype 1a) (Hepatitis C virus genotype 1a, UniProt P27958, C1454S).
T1 construct: DNA encoding the recombinant HCV NS3/4A protease complex (amino acids 1027 to 1711) for these strains; inferred from the pET21b vector and Ni-NTA purification; made in house; host or cells: Escherichia coli BL21 (DE3), pET21b
The test is described as follows: Recombinant HCV NS3/4A protease complex FRET peptide assay, BMS strain. The note with it: IC50 range, NS3/4A BMS Strain. It is filed as biochemical. The procedure, abridged:
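Recombinant NS3/4A complex (aa 1027–1711) with C-terminal three-lysine tail, C1711G and C1454S, expressed in E. coli BL21(DE3) and purified by Ni-NTA then Superdex-S200. Inhibition of the complex from each strain measured in vitro by FRET peptide cleavage.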

The subject of test [2] is HCV replicon in Huh7 cells. The test is described as follows: HCV replicon cell-based assay (FRET). The conditions noted are these: Hepatitis C virus, Huh-7; HCV replicon; read-out: EC50 range. The procedure, abridged: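 Huh7 cells stably carrying a genotype 1b HCV replicon (IRES-neo-EMCV-IRES-NS3-NS5B) were treated with compound for 4 days at 37 °C in 0.5% DMSO final. Lysates containing 10 μM FRET peptide RET S1 were read kinetically at 340/490 nm to give NS3 protease activity, from which EC50 was derived.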
For orientation: A replicon is a self-replicating genome or part of one, used to study replication in cells.

T1 sequence (P27958 1658-1714, looked up, stated change not applied): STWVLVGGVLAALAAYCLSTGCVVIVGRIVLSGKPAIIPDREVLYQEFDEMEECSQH
T1 sequence (P27958 1027-1657, looked up, stated change not applied): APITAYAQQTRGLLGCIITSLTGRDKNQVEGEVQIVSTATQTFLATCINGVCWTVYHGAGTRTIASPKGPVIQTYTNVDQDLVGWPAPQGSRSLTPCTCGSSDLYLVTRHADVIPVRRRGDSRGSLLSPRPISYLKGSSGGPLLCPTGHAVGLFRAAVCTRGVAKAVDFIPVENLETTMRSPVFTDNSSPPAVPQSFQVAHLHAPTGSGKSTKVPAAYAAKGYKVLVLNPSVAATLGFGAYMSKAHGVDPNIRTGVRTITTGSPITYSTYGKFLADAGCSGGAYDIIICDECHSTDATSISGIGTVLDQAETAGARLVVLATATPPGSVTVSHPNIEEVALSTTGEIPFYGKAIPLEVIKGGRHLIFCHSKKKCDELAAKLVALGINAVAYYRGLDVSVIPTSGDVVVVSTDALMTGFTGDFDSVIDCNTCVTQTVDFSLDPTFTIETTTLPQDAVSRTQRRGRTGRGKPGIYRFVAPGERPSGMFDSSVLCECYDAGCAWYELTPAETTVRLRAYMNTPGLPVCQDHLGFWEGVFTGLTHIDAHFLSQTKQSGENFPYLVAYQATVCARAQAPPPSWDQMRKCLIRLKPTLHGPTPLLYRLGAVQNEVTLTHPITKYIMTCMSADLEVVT

As a reminder, the IC50 is the concentration that inhibits the measured activity by half. As a reminder, the EC50 is the midpoint of the concentration-response curve. `C=C[C@@H]1C[C@]1(NC(=O)[C@@H]1C[C@@H](Oc2cc(-c3ccccc3)nc3cc(OC)ccc23)CN1C(=O)[C@@H](NC(=O)Oc1cccc(C(F)(F)F)c1)C(C)(C)C)C(=O)NS(=O)(=O)C1(Cc2ccccc2)CC1` [Compound 108]: the IC50 in test [1] fell in the range of 50 to 500 nM. Moreover, in test [2], the EC50 was 500 to 5000 nM.
Taken in the same sequence, the figures for `C=C[C@@H]1C[C@]1(NC(=O)[C@@H]1C[C@@H](Oc2cc(-c3ccccc3)nc3cc(OC)ccc23)CN1C(=O)[C@@H](NC(=O)CC(C)(C)C)C(C)(C)C)C(=O)NS(=O)(=O)C1(Cc2ccccc2)CC1` [Compound 110] were 50 to 500 nM and 50 to 500 nM.
Take `C=C[C@@H]1C[C@]1(NC(=O)[C@@H]1C[C@@H](Oc2cc(-c3ccccc3)nc3cc(OC)ccc23)CN1C(=O)[C@@H](NC(=O)COC)C(C)(C)C)C(=O)NS(=O)(=O)C1(Cc2ccccc2)CC1` [Compound 111]: the IC50 in test [1] lay within 50 to 500 nM. In addition, the EC50 in test [2] was 50 to 500 nM.
Turning to `C=C[C@@H]1C[C@]1(NC(=O)[C@@H]1C[C@@H](Oc2cc(-c3ccccc3)nc3cc(OC)ccc23)CN1C(=O)[C@@H](NC(=O)CCOC)C(C)(C)C)C(=O)NS(=O)(=O)C1(Cc2ccccc2)CC1` [Compound 112], in test [1], the IC50 lay in the range of 50 to 500 nM. For the same molecule, the EC50 in test [2] was 50 to 500 nM.
As for `C=C[C@@H]1C[C@]1(NC(=O)C1C[C@@H](Oc2cc(-c3ccccc3)nc3cc(OC)ccc23)CN1C(=O)[C@@H](NC(=O)[C@@H](OC)c1ccccc1)C(C)(C)C)C(=O)NS(=O)(=O)C1(CC2CC2)CC1` (stereo partly drawn) [Compound 119], the IC50 in test [1] was under 50 nM. In test [2], the EC50 was 50 to 500 nM.
Taken in the same sequence, the figures for `C=C[C@@H]1C[C@]1(NC(=O)C1CC(Oc2cc(-c3ccccc3)nc3cc(OC)ccc23)CN1C(=O)[C@@H](NC(=O)N(C)C(C)(C)C)C(C)(C)C)C(=O)NS(=O)(=O)C1(CC2CC2)CC1` (stereo partly drawn) [Compound 120] were under 50 nM and 50 to 500 nM.
Taken in the same sequence, the figures for `CCCC1(S(=O)(=O)NC(=O)[C@@]2(NC(=O)[C@@H]3C[C@@H](Oc4cc(-c5ccccc5)nc5cc(OC)ccc45)CN3C(=O)[C@@H](NC(=O)OC(C)(C)C)C(C)(C)C)CC2C2CC2)CC1` (stereo partly drawn) [Compound 203] were under 50 nM and 50 to 500 nM.
For `COc1ccc2c(O[C@@H]3C[C@@H](C(=O)N[C@]4(C(=O)NS(=O)(=O)C5(Cc6ccccc6)CC5)CC4C4CC4)N(C(=O)[C@@H](NC(=O)OC(C)(C)C)C(C)(C)C)C3)cc(-c3ccccc3)nc2c1` (stereo partly drawn) [Compound 204], the IC50 in test [1] lay within 50 to 500 nM. For the same molecule, in test [2], the EC50 was in the range of 50 to 500 nM.
For `COc1ccc2c(O[C@@H]3C[C@@H](C(=O)N[C@]4(C(=O)NS(=O)(=O)C5(CC6CC6)CC5)CC4C4CC4)N(C(=O)[C@@H](NC(=O)OC(C)(C)C)C(C)(C)C)C3)cc(-c3ccccc3)nc2c1` (stereo partly drawn) [Compound 205], in test [1], the IC50 was under 50 nM. The EC50 in test [2] was in the range of 50 to 500 nM.
